Laboratory results reported in US10603335B2, “Cancer treatment combination compositions, methods and uses” (Board of Supervisors of Louisiana State University and …, priority 2016, dated 2020).

Assays:
PATX50 tissue slices = test: Live Tissue Sensitivity Assay (LTSA), PATX50; assay type: cell-based; settings: 72 hours
Experimental: (§1) Animal experiment protocol was reviewed and approved by The University of Texas MD Anderson Cancer Center (Houston, Tex.) institutional review board and in accordance with the Guidelines for the Care and Use of Laboratory Animals published by the National Institutes of Health. PDXs were grown from cryopreserved early passages of PDXs in nude mice as described in previous publications (Kim M P, et al, Nat Protoc 2009; 4(11): 1670-80). Briefly, tumor samples stored in CryoStor™ CS10 storage medium were recovered and cut into about 2 mm3 fragments, soaked in Matrigel, and implanted into the subcutaneous space of Balb/c nude mice (5 mice/PDX). Tumors were harvested when they reach 1.5 cm in diameter for generating tissue slices for drug testing with quadruplicates.
(§2) About 100 tissue slices were produced from 1 tumorgraft with tissue slicer and arrayed in 96-well plates with previously established method (Roife D, et al, Clin Cancer Res 2016). […] Same volume of medium with 0.1% DMSO was added into control wells. After 72 hours, tissue viabilities were measured with PrestoBlue method. Viability inhibition will be calculated through normalization of viabilities of tissue slices treated with inhibitor against the viability of control (DMSO treated) slices. Inhibition of viability was further analyzed with t-test. […]

PATX112 tissue slices = test: Live Tissue Sensitivity Assay (LTSA), PATX112; assay type: cell-based; settings: 72 hours
Experimental: as §1, §2

Panc-1 cells spheroids = test: 3D spheroid growth (IncuCyte ZOOM), Panc-1; assay type: cell-based
Experimental: (§3) A protocol that enables the growth of identical size single cancer cell spheroids in Matrigel in 96 well plates has been developed.
(§4) Panc-1 and Mia-Paca-2 cells were grown in 10% FBS DMEM. Cells were collected after trypsinization and resuspended in phenol-red free DMEM with 10% FBS. Cells were labeled with CellTracker Red (Life Techmologies) for 5 minutes. After labeling cells were washed with PBS and transfer into 96-well Corning 7007 ULA round bottom plates at 1,000 cells/well in 100 μl phenol-red free media with 10% FBS and 5% Matrigel. […] Spheroids were grown at 37° C. and 5% CO2 in IncuCyte ZOOM (Essen Bioscience). Images were acquired every 4 h for a period of 120 h post-treatment and software analysis was design to identify the red object in the well. The data were expressed as fold increase in spheroids size at the end of the treatment using the “average red object area in the well” as determined by the IncuCyte software analysis. Reproducibility was confirmed in three independent experiments. Spheroids grew at a uniform rate (FIG. 1).

PATX153 tissue slices = test: Live Tissue Sensitivity Assay (LTSA), PATX153; assay type: cell-based; settings: 72 hours
Experimental: as §1, §2

PATX118 tissue slices = test: Live Tissue Sensitivity Assay (LTSA), PATX118; assay type: cell-based; settings: 72 hours
Experimental: as §1, §2

PATX148 tissue slices = test: Live Tissue Sensitivity Assay (LTSA), PATX148; assay type: cell-based; settings: 72 hours
Experimental: as §1, §2

[1] = tested on: cleaved PARP, XIAP and cIAP2 in AsPC-1 cells; test: Western blot of apoptosis markers and inhibitors of apoptosis, AsPC-1; assay type: cell-based; settings: for XIAP and c-IAP2 protein levels: 24 h; for apoptosis marker cleaved PARP: 24 h post-treatment, LHRH-curcumin 10-100 uM, gemcitabine 1-20 uM
Experimental: (§5) Pancreatic cells were collected after trypsinization and seeded in 12-well plates for 24 h before treatments. Treatments were performed as described in the Figure legends. Following treatment, whole cell lysates were collected in Laemmli buffer and analyzed by Western blot. The following primary antibodies were used: XIAP, c-IAP2, cleaved PARP, Caspase-3 (all from Cell Signaling), actin (Santa Cruz) and LHRHR (Abcam).
(§6) Western blot analysis. Actin, GAPDH and Ponceau staining were used as loading controls. Gemcitabine was diluted in water. Curcumin and LHRH-curcumin were diluted in DMSO. Cells were treated as follows:
Western blot analysis. Actin, GAPDH and Ponceau staining were used as loading controls. Gemcitabine was diluted in water. Curcumin and LHRH-curcumin were diluted in DMSO.

PATX92 tissue slices = test: Live Tissue Sensitivity Assay (LTSA), PATX92; assay type: cell-based; settings: 72 hours
Experimental: as §1, §2

PATX173 tissue slices = test: Live Tissue Sensitivity Assay (LTSA), PATX173; assay type: cell-based; settings: 72 hours
Experimental: as §1, §2

Mia-PaCa-2 spheroids = test: 3D spheroid growth (IncuCyte ZOOM), Mia-PaCa-2; assay type: cell-based, human; settings: for size of the spheroids: MiaPaca-2, gemcitabine 0.5, 1.0, 5.0 μM, LHRH-curcumin 10, 20 μM, 5 days
Experimental: as §3, §4

[2] = tested on: Mia-PaCa-2 cancer cell xenografts; test: Mia-PaCa-2 subcutaneous xenograft tumor growth; assay type: in vivo, SCID/bg mice; settings: IP
Experimental: Male SCID/bg mice (5 weeks old; Taconic Biosciences, NY) were housed in the standard mouse Plexiglas cages in a room maintained at constant temperature and humidity under a 12 h light and darkness cycle. The experimental protocol was reviewed and approved by the Institutional Animal Care and Use Committee at the LSUHSC Shreveport.
Mia-PaCa-2 cells were harvested from cell cultures after trypsinization. The cells were washed once in serum-free medium and re-suspended in HBSS. Only suspensions consisting of single cells with >90% viability were used for the injections. Mice were injected s.c. on the right hind flank with 5×10^6 MIA-PaCa cells (ATCC, VA) in 50% Matrigel/HBSS with 26 Ga syringes.
The vehicle treated group received an equivalent amount of PBS. Tumor volumes were measured with calipers once a week and body weights of mice were measured once a week. Tumor volumes were calculated by the formula: V(mm3)=(length×width*2)/2, in which width was the shortest measurement in millimeters. Mice were necropsied 10 days after the last treatment for the low dose treatment (day 35 after the randomization and day 55 from the tumor cell implantation) or 2 days after the last treatment for high dose treatment (day 28 after the randomization and 48 from the tumor cell implantation). Tumors were dissected, weighed and photographed.

PATX141 tissue slices = test: Live Tissue Sensitivity Assay (LTSA), PATX141; assay type: cell-based; settings: 72 hours
Experimental: as §1, §2

[3] = tested on: cleaved PARP, XIAP and cIAP2 in MiaPaca-2 cells; test: Western blot of apoptosis markers and inhibitors of apoptosis, MiaPaca-2; assay type: cell-based, human; settings: for apoptosis marker cleaved PARP: 24 h post-treatment, LHRH-curcumin 10-100 uM, gemcitabine 1-20 uM
Experimental: as §5, §6
Western blot analysis. Actin, GAPDH and Ponceau staining were used as loading controls. Gemcitabine was diluted in water. Curcumin and LHRH-curcumin were diluted in DMSO. The cells were treated as follows:
Western blot analysis. Actin was used as loading control. Both gemcitabine and LHRH-curcumin were diluted in water.

[4] = gemcitabine 0.5, 1.0, 5.0 μM, LHRH-curcumin 10, 20 μM, 5 days
[5] = curcumin, LHRH-curcumin 50 uM and 100 uM alone, gemcitabine alone
[6] = high doses: gemcitabine 100 mg/kg once a week, LHRH-curcumin 40 mg/kg twice a week, day 48
[7] = low doses: gemcitabine 50 mg/kg once a week, LHRH-curcumin 20 mg/kg twice a week, day 55
[8] = 24 h, curcumin, LHRH-curcumin 50 uM and 100 uM alone, gemcitabine alone

## COc1cc(/C=C/C(=O)CC(=O)/C=C/c2ccc(OC(=O)CCCC(=O)NCCCC[C@@H](NC(=O)[C@H](Cc3ccc(O)cc3)NC(=O)[C@H](CO)NC(=O)[C@H](Cc3c[nH]c4ccccc34)NC(=O)[C@H](Cc3c[nH]cn3)NC(=O)[C@@H]3CCC(=O)N3)C(=O)N[C@@H](CC(C)C)C(=O)N[C@@H](CCCNC(=N)N)C(=O)N3CCC[C@H]3C(=O)NCC(N)=O)c(OC)c2)ccc1O [LHRH-curcumin, [DLys6]-LHRH-Curcumin]
PATX50 tissue slices; single agent
  Sensitivity To LHRH-C: Resistant
PATX112 tissue slices; single agent
  Sensitivity To LHRH-C: Sensitive (The tissue was defined as sensitive to the treatment if both p<0.05 and at least 30% of tissue slice viability on average was inhibited)
Panc-1 cells spheroids; 3D culture, 10, 20 and 30 μM, 120 h
  effectiveness on spheroids growth versus curcumin: more effective than curcumin
Panc-1 cells spheroids; 10, 20 and 30 μM, 120 h post-treatment
  size of the spheroids: significantly decreased the size of the spheroids formed by Panc-1 cells in a dose-dependent manner
Panc-1 cells spheroids; LHRH 30 μM, LHRH-curcumin 30 μM
  spheroids growth: superior to that of LHRH
Panc-1 cells spheroids; [4]
  size of the spheroids: decrease the size of the spheroids
PATX153 tissue slices; single agent
  Sensitivity To LHRH-C: Sensitive (The tissue was defined as sensitive to the treatment if both p<0.05 and at least 30% of tissue slice viability on average was inhibited)
PATX118 tissue slices; single agent
  Sensitivity To LHRH-C: Resistant
PATX148 tissue slices; single agent
  Sensitivity To LHRH-C: Resistant
[1]; 50 uM in the presence of gemcitabine (5 uM)
  XIAP and c-IAP2 protein levels: down-regulated
[1]; [5]
  XIAP and c-IAP2 protein levels: down-regulated
[1]; curcumin
  apoptosis marker cleaved PARP: initiate apoptosis as illustrated by the presence of cleaved PARP
PATX92 tissue slices; single agent
  Sensitivity To LHRH-C: Resistant
PATX173 tissue slices; single agent
  Sensitivity To LHRH-C: Resistant
Mia-PaCa-2 spheroids; 10, 20 and 30 μM, 120 h
  efficiency on spheroids growth, Panc-1 versus Mia-PaCa-2: more efficient on Panc-1 cells than Mia-PaCa-2 cells
Mia-PaCa-2 spheroids
  size of the spheroids: decrease the size of the spheroids
[2]; [6]
  Tumor volume at necropsy: significantly reduced
[2]; [7]
  Tumor volume at necropsy: significantly reduced
PATX141 tissue slices; single agent
  Sensitivity To LHRH-C: Resistant
[3]; 24 h, 50 uM in the presence of gemcitabine (5 uM)
  XIAP and c-IAP2 protein levels: down-regulated
[3]; [8]
  XIAP and c-IAP2 protein levels: down-regulated
[3]; curcumin
  apoptosis marker cleaved PARP: initiate apoptosis as illustrated by the presence of cleaved PARP
[3]; 72 h, LHRH-curcumin 10 uM and 20 uM in the presence of gemcitabine (5 uM and 10 uM)
  XIAP and c-IAP2 protein levels: down-regulated

## Nc1ccn([C@@H]2O[C@H](CO)[C@@H](O)C2(F)F)c(=O)n1 [gemcitabine, 2′,2′-difluoro 2′deoxycytidine, reference compound]
PATX50 tissue slices; Gem 10 μM
  tissue slice viability: 104.96
PATX112 tissue slices; Gem 10 μM
  tissue slice viability: 91.71
Panc-1 cells spheroids; [4]
  size of the spheroids: decrease the size of the spheroids
PATX153 tissue slices; Gem 10 μM
  tissue slice viability: 96.86
PATX118 tissue slices; Gem 10 μM
  tissue slice viability: 97.56
PATX148 tissue slices; Gem 10 μM
  tissue slice viability: 99.55
[1]; [5]
  XIAP and c-IAP2 protein levels: doesn't affect XIAP and c-IAP2 levels
[1]; curcumin
  apoptosis marker cleaved PARP: Low levels of cleaved PARP was detected
PATX92 tissue slices; Gem 10 μM
  tissue slice viability: 85.63
PATX173 tissue slices; Gem 10 μM
  tissue slice viability: 89.87
Mia-PaCa-2 spheroids
  size of the spheroids: decrease the size of the spheroids
[2]; [6]
  Tumor volume at necropsy: significantly reduced
[2]; [7]
  Tumor volume at necropsy: significantly reduced
PATX141 tissue slices; Gem 10 μM
  tissue slice viability: 105.35
[3]; [8]
  XIAP and c-IAP2 protein levels: doesn't affect XIAP and c-IAP2 levels
[3]; curcumin
  apoptosis marker cleaved PARP: no cleaved PARP was detected
